According to ChEMBL document CHEMBL5723584 (2023):
Active and inactive are the calls of the source. No cut-off for these calls is given here.

How the values were obtained:
[1] = molecular target: Rhodopsin kinase GRK7 (Homo sapiens) (UniProt Q8WTQ7); assay: activity of GRK7(h) at 1.0 µM in the Eurofins Kinase panel; details: Compound concentration 1.0 uM
[2] = molecular target: Dual specificity mitogen-activated protein kinase kinase 2 (Homo sapiens) (UniProt P36507); assay: activity of MEK2(h) at 1.0 µM in the Eurofins Kinase panel; details: Compound concentration 1.0 uM
[3] = molecular target: Tyrosine-protein kinase JAK3 (Homo sapiens) (UniProt P52333); assay: activity of JAK3(h) at 1.0 µM in the Eurofins Kinase panel; details: Compound concentration 1.0 uM
[4] = molecular target: G protein-coupled receptor kinase 5 (Homo sapiens) (UniProt P34947); assay: activity of GRK5(h) at 1.0 µM in the Eurofins Kinase panel; details: Compound concentration 1.0 uM
[5] = molecular target: Mitogen-activated protein kinase kinase kinase kinase 1 (Homo sapiens) (UniProt Q92918); assay: activity of HPK1(h) at 1.0 µM in the Eurofins Kinase panel; details: Compound concentration 1.0 uM
[6] = molecular target: Tyrosine-protein kinase JAK2 (Homo sapiens) (UniProt O60674); assay: activity of JAK2(h) at 1.0 µM in the Eurofins Kinase panel; details: Compound concentration 1.0 uM
[7] = molecular target: SNF-related serine/threonine-protein kinase (Homo sapiens) (UniProt Q9NRH2); assay: activity of SNRK(h) at 1.0 µM in the Eurofins Kinase panel; details: Compound concentration 1.0 uM
[8] = molecular target: STE20/SPS1-related proline-alanine-rich protein kinase (Homo sapiens) (UniProt Q9UEW8); assay: activity of STK39(h) at 1.0 µM in the Eurofins Kinase panel; details: Compound concentration 1.0 uM
[9] = molecular target: Serine/threonine-protein kinase tousled-like 2 (Homo sapiens) (UniProt Q86UE8); assay: activity of TLK2(h) at 1.0 µM in the Eurofins Kinase panel; details: Compound concentration 1.0 uM
[10] = molecular target: Serine/threonine-protein kinase Sgk3 (Homo sapiens) (UniProt Q96BR1); assay: activity of SGK3(h) at 1.0 µM in the Eurofins Kinase panel; details: Compound concentration 1.0 uM
[11] = molecular target: Protein kinase C delta type (Homo sapiens) (UniProt Q05655); assay: activity of PKCdelta(h) at 1.0 µM in the Eurofins Kinase panel; details: Compound concentration 1.0 uM
[12] = molecular target: Receptor-interacting serine/threonine-protein kinase 2 (Homo sapiens) (UniProt O43353); assay: activity of RIPK2(h) at 1.0 µM in the Eurofins Kinase panel; details: Compound concentration 1.0 uM
[13] = molecular target: Dual specificity protein kinase CLK3 (Homo sapiens) (UniProt P49761); assay: activity of CLK3(h) at 1.0 µM in the Eurofins Kinase panel; details: Compound concentration 1.0 uM
[14] = molecular target: TGF-beta receptor type-2 (Homo sapiens) (UniProt P37173); assay: activity of TGFBR2(h) at 1.0 µM in the Eurofins Kinase panel; details: Compound concentration 1.0 uM
[15] = molecular target: RAF proto-oncogene serine/threonine-protein kinase (Homo sapiens) (UniProt P04049); assay: activity of c-RAF(h) at 1.0 µM in the Eurofins Kinase panel; details: Compound concentration 1.0 uM
[16] = molecular target: CDK3/Cyclin E (Homo sapiens) (UniProt P24864+Q00526); assay: activity of CDK3/cyclinE(h) at 1.0 µM in the Eurofins Kinase panel; type: protein-complex assay; details: Compound concentration 1.0 uM
[17] = molecular target: Tyrosine-protein kinase Lyn (Homo sapiens) (UniProt P07948); assay: activity of Lyn(h) at 1.0 µM in the Eurofins Kinase panel; details: Compound concentration 1.0 uM
[18] = molecular target: Dual specificity protein kinase CLK1 (Homo sapiens) (UniProt P49759); assay: activity of CLK1(h) at 1.0 µM in the Eurofins Kinase panel; details: Compound concentration 1.0 uM
[19] = molecular target: Cyclin-dependent kinase-like 1 (Homo sapiens) (UniProt Q00532); assay: activity of CDKL1(h) at 1.0 µM in the Eurofins Kinase panel; details: Compound concentration 1.0 uM
[20] = molecular target: Serine/threonine-protein kinase MRCK alpha (Homo sapiens) (UniProt Q5VT25); assay: activity of MRCKalpha(h) at 1.0 µM in the Eurofins Kinase panel; details: Compound concentration 1.0 uM
[21] = molecular target: Serine/threonine-protein kinase VRK1 (Homo sapiens) (UniProt Q99986); assay: activity of VRK1(h) at 1.0 µM in the Eurofins Kinase panel; details: Compound concentration 1.0 uM
[22] = molecular target: Serine/threonine-protein kinase WNK1 (Homo sapiens) (UniProt Q9H4A3); assay: activity of WNK1(h) at 1.0 µM in the Eurofins Kinase panel; details: Compound concentration 1.0 uM
[23] = molecular target: CDK6/cyclin D3 (Homo sapiens) (UniProt P30281+Q00534); assay: activity of CDK6/cyclinD3(h) at 1.0 µM in the Eurofins Kinase panel; type: protein-complex assay; details: Compound concentration 1.0 uM
[24] = molecular target: Fibroblast growth factor receptor 1 (Homo sapiens) (UniProt P11362); assay: activity of FGFR1(h) at 1.0 µM in the Eurofins Kinase panel; details: Compound concentration 1.0 uM
[25] = molecular target: Citron Rho-interacting kinase (Homo sapiens, UniProt O14578); assay: NanoLuc NanoBRET (CIT); details: read-out: Kd
Chain of Citron Rho-interacting kinase (O14578 whole entry): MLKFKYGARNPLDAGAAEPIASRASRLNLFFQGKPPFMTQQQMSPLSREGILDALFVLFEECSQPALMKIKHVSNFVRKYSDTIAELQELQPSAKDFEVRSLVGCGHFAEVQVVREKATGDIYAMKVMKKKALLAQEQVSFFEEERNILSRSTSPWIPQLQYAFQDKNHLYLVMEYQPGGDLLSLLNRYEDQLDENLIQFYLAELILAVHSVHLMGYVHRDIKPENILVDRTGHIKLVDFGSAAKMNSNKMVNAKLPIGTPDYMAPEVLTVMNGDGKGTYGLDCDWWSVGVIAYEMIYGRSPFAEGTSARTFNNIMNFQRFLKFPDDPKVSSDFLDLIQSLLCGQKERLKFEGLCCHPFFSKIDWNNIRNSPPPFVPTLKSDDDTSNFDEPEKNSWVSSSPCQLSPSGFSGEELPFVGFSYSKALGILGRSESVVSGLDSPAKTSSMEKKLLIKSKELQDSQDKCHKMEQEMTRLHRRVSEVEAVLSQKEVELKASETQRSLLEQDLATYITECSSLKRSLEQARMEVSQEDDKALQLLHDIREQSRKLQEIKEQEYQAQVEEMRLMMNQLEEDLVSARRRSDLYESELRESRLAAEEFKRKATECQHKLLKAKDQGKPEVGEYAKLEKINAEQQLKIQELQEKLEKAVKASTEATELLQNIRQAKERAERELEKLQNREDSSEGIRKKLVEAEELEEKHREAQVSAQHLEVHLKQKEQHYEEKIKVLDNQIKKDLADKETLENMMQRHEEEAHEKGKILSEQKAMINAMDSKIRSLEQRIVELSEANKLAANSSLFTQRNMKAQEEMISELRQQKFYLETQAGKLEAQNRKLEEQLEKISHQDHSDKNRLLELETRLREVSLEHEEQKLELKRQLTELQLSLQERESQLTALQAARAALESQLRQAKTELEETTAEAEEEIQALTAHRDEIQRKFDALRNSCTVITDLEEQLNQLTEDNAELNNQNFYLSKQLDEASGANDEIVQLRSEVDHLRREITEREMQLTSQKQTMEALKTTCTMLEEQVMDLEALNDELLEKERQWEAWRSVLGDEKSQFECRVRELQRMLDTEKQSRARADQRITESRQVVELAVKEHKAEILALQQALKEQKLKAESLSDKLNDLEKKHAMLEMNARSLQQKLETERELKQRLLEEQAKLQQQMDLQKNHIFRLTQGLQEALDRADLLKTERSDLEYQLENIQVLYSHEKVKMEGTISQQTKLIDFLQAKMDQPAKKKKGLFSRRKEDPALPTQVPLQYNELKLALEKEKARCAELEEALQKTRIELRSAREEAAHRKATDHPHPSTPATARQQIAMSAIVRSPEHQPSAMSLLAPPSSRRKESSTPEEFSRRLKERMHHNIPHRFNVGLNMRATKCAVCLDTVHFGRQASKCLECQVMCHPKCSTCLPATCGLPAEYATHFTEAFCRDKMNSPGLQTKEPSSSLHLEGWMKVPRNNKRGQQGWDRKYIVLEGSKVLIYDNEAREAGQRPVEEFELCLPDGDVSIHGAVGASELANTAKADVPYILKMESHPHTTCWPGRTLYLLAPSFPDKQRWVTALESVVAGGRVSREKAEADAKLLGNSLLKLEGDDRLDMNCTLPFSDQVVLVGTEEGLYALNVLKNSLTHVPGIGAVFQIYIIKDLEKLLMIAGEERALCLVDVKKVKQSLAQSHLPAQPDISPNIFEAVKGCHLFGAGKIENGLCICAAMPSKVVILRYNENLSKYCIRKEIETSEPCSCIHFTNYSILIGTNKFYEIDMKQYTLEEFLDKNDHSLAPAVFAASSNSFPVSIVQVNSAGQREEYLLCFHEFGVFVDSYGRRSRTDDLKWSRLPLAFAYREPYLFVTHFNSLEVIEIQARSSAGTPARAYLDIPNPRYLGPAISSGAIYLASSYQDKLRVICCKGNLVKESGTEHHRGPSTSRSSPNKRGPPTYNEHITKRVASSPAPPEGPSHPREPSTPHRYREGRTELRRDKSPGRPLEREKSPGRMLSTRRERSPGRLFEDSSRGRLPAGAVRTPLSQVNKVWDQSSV

[26] = molecular target: Homeodomain-interacting protein kinase 4 (Homo sapiens, UniProt Q8NE63); assay: Promega NanoBRET (HIPK4)
[27] = molecular target: Testis-specific serine/threonine-protein kinase 1 (Homo sapiens) (UniProt Q9BXA7); assay: activity of TSSK1(h) at 1.0 µM in the Eurofins Kinase panel; details: Compound concentration 1.0 uM
[28] = molecular target: Ephrin type-A receptor 3 (Homo sapiens) (UniProt P29320); assay: activity of EphA3(h) at 1.0 µM in the Eurofins Kinase panel; details: Compound concentration 1.0 uM
Chain of Ephrin type-A receptor 3 (Homo sapiens) (P29320 whole entry): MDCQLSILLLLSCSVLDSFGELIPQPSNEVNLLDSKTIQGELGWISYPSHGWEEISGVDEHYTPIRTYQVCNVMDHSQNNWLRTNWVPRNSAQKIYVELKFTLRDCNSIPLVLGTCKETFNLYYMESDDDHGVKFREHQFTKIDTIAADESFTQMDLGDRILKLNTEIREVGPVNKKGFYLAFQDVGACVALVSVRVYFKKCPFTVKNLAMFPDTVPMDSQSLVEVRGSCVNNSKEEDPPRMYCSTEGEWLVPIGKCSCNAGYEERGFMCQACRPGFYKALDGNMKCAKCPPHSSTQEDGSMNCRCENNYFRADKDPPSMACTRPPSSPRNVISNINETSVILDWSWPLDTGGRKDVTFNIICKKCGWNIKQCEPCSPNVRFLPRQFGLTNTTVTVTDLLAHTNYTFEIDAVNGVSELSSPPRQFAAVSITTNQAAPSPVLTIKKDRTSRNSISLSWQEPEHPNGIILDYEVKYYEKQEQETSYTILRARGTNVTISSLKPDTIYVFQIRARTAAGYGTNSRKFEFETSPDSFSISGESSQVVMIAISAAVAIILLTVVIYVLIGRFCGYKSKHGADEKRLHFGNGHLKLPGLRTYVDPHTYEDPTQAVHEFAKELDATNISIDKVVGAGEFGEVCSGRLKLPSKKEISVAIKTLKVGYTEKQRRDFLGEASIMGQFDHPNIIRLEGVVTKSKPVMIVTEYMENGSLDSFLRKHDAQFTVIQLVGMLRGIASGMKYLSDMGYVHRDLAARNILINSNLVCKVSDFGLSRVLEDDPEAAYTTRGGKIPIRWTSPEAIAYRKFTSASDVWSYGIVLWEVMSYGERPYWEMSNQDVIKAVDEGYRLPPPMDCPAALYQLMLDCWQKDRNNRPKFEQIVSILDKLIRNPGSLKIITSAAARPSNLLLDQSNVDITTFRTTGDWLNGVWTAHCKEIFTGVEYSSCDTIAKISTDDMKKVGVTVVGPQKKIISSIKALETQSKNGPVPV

[29] = molecular target: Ephrin type-A receptor 4 (Homo sapiens) (UniProt P54764); assay: activity of EphA4(h) at 1.0 µM in the Eurofins Kinase panel; details: Compound concentration 1.0 uM
[30] = molecular target: [Pyruvate dehydrogenase (acetyl-transferring)] kinase isozyme 2, mitochondrial (Homo sapiens) (UniProt Q15119); assay: activity of PDHK2(h) at 1.0 µM in the Eurofins Kinase panel; details: Compound concentration 1.0 uM
[31] = molecular target: Tyrosine-protein kinase Fes/Fps (Homo sapiens) (UniProt P07332); assay: activity of Fes(h) at 1.0 µM in the Eurofins Kinase panel; details: Compound concentration 1.0 uM
[32] = molecular target: Death-associated protein kinase 3 (Homo sapiens) (UniProt O43293); assay: activity of ZIPK(h) at 1.0 µM in the Eurofins Kinase panel; details: Compound concentration 1.0 uM
Chain of Death-associated protein kinase 3 (Homo sapiens) (O43293 whole entry, looked up): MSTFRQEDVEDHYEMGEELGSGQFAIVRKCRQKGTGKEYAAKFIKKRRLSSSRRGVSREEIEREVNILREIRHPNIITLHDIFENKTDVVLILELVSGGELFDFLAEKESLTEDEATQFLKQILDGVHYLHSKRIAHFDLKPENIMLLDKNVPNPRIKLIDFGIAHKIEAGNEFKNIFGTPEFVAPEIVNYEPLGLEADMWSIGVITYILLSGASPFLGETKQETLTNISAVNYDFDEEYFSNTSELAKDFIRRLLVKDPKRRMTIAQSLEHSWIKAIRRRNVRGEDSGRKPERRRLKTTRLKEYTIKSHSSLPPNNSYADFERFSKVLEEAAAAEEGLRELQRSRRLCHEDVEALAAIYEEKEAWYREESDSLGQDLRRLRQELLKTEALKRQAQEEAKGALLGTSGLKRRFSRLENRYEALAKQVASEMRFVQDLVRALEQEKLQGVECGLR

[33] = molecular target: NT-3 growth factor receptor (Homo sapiens) (UniProt Q16288); assay: activity of TrkC(h) at 1.0 µM in the Eurofins Kinase panel; details: Compound concentration 1.0 uM
Chain of NT-3 growth factor receptor (Homo sapiens) (Q16288 32-839 limits assumed): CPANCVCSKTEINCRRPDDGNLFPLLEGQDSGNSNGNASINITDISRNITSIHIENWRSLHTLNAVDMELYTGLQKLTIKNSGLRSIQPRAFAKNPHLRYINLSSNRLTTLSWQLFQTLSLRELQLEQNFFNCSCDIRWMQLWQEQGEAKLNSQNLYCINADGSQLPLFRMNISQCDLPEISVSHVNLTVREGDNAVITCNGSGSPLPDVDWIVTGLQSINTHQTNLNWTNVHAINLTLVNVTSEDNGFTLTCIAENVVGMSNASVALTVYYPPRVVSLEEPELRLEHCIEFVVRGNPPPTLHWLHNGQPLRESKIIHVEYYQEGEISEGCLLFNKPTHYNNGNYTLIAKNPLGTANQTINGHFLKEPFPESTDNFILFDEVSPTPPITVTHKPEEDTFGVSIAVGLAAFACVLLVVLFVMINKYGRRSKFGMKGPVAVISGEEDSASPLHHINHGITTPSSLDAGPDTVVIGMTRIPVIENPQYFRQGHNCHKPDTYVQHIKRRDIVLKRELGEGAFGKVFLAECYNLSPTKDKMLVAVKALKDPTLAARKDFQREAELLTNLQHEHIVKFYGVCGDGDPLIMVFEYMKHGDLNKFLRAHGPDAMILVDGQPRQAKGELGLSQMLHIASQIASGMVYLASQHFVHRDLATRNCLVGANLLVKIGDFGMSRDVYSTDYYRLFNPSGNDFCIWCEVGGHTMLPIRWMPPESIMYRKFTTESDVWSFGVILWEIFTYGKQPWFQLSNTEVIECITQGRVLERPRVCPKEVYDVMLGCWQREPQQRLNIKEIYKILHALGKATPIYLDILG

[34] = molecular target: SRSF protein kinase 3 (Homo sapiens) (UniProt Q9UPE1); assay: activity of MSSK1(h) at 1.0 µM in the Eurofins Kinase panel; details: Compound concentration 1.0 uM
Chain of SRSF protein kinase 3 (Homo sapiens) (Q9UPE1 whole entry): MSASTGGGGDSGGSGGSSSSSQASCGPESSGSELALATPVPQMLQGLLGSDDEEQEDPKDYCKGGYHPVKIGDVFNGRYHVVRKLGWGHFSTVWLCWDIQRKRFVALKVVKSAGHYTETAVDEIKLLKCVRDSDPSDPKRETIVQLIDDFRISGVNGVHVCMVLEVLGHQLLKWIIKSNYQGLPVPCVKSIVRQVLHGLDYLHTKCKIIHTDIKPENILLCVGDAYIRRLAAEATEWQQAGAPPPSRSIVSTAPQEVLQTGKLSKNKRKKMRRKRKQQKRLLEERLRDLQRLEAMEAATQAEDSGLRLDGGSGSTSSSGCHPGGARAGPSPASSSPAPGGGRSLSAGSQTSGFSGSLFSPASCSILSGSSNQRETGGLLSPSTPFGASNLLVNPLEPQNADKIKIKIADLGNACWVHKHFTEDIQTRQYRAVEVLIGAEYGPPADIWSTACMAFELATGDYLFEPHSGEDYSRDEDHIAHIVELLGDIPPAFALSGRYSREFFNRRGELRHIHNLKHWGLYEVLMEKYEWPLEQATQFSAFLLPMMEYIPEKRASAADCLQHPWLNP

[35] = molecular target: Glycogen synthase kinase-3 beta (Homo sapiens) (UniProt P49841); assay: activity of GSK3beta(h) at 1.0 µM in the Eurofins Kinase panel; details: Compound concentration 1.0 uM
[36] = molecular target: ALK tyrosine kinase receptor (Homo sapiens) (UniProt Q9UM73); assay: activity of ALK(h) at 1.0 µM in the Eurofins Kinase panel; details: Compound concentration 1.0 uM
[37] = molecular target: Inhibitor of nuclear factor kappa-B kinase subunit epsilon (Homo sapiens) (UniProt Q14164); assay: activity of IKKepsilon(h) at 1.0 µM in the Eurofins Kinase panel; details: Compound concentration 1.0 uM
[38] = molecular target: Casein kinase I isoform gamma-3 (Homo sapiens) (UniProt Q9Y6M4); assay: activity of CK1gamma3(h) at 1.0 µM in the Eurofins Kinase panel; details: Compound concentration 1.0 uM
[39] = molecular target: Tyrosine-protein kinase receptor TYRO3 (Homo sapiens) (UniProt Q06418); assay: activity of Rse(h) at 1.0 µM in the Eurofins Kinase panel; details: Compound concentration 1.0 uM

## Cc1cc2c(-c3ccc(NC(=O)[C@H](N)CC(C)(C)C)cc3C)ccnc2[nH]1
[1]
  activity: 98%
[2]
  activity: 92%
[3]
  activity: 106%
[4]
  activity: 97%
[5]
  activity: 73%
[6]
  activity: 104%
[7]
  activity: 111%
[8]
  activity: 102%
[9]
  activity: 92%
[10]
  activity: 102%
[11]
  activity: 93%
[12]
  activity: 97%
[13]
  activity: 107%
[14]
  activity: 96%
[15]
  activity: 106%
[16]
  activity: 102%
[17]
  activity: 80%
[18]
  activity: 88%
[19]
  activity: 99%
[20]
  activity: 94%
[21]
  activity: 99%
[22]
  activity: 109%
[23]
  activity: 90%
[24]
  activity: 100%
[25]
  Kd: 0.0095 µM (active)
[26]
  IC50: > 10 µM (not active)
[27]
  activity: 116%
[28]
  activity: 79%
[29]
  activity: 92%
[30]
  activity: 87%
[31]
  activity: 111%
[32]
  activity: 94%
[33]
  activity: 86%
[34]
  activity: 134%
[35]
  activity: 93%
[36]
  activity: 77%
[37]
  activity: 87%
[38]
  activity: 84%
[39]
  activity: 129%
